Assay results reported in US11072626B2, “Small molecule inhibitors of Galectin-3” (BRISTOL-MYERS SQUIBB COMPANY, priority 2017, dated 2021).
pIC50: −log10 of the molar value.

molecular target: His-tagged recombinant human Gal-3 (hGal-3) (Homo sapiens (Human), UniProt P17931); assay: Gal-3 HTRF assay (hGal-3 / B-ASF); assay type: binding; settings: 15 nM hGal-3, 15 nM B-ASF, table after Example 20, read-out: hGal3 IC50
Method: ASSAY BUFFER Composition: 25 mM HEPES, 100 mM NaCl, 0.005% Tween 20, 0.05% BSA prepared in sterile water (all reagents from Sigma)
Positive Control: 100% DMSO (1 μl)+His-tagged hGal-3 (20 μL)+B-ASF (20 μl)+Anti-His Terbium Antibody (5 μl)+Strep d2 Antibody (5 μl).
Negative Control: 100% DMSO (1 μl)+His-tagged hGal-3 (20μL)+Anti His Terbium Antibody (5 μl)+Strep d2 Aantibody (5 μl).
PROTOCOL: The Gal-3 assays were performed in 384 white Opti plates in three replicates at room temperature with gentle shaking at 250-300 rpm From the original stocks, […] working stock concentrations of His-tagged recombinant human Gal-3 (hGal-3) and that of B-ASF were prepared. From the working stock, 20 μl of hGal-3 (15 nM) and 20 μl B-ASF (15 nM) were added to the plates. In Negative Control, only hGal-3 was added. A concentration range of 50× working stocks were prepared for the compounds in 100% DMSO. Aliquots of 1 uL of the compounds were added to the wells and pre-incubated with 20 μl hGal-3 per well for 30 minutes Then 20 μl B-ASF were added and incubated for another 1 hour. To detect the signal, 5 μ(final conc. of 1.0 nM) terbium labelled Anti-His antibody was added and incubated for 30 min followed by adding 5 μ(final conc. of 20 nM) Streptavidin d2 and incubation for another 1 hour. The assay signal was detected using HTRF screen protocol (Excitation wavelength=340 nm, emission wavelength=615 nm/665 nm) on Envision 2104 Multilabel Reader. Data analysed using Toolset and Curve Master. Results are reported in the experimental section (IC50 in μM).

His-tagged recombinant human Gal-3 (hGal-3), sequence (P17931 whole entry): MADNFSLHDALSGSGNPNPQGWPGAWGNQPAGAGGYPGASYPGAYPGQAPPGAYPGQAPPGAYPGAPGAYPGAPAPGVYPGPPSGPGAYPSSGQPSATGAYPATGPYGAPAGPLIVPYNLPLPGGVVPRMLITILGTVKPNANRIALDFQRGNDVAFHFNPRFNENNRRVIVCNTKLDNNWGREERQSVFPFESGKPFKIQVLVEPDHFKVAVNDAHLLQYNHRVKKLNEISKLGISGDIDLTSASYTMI

pIC50	Compound
7.22	O=C(CO[C@@H]1[C@@H](n2cc(-c3cc(F)c(F)c(F)c3)nn2)[C@@H](O)[C@@H](CO)O[C@@H]1Sc1ccc(Cl)c(Cl)c1)N1CCC[C@@H](O)C1 [Example 23]
7.12	O=C(CO[C@@H]1[C@@H](n2cc(-c3cc(F)c(F)c(F)c3)nn2)[C@@H](O)[C@@H](CO)O[C@@H]1Sc1ccc(Cl)c(Cl)c1)N1CCOCC1 [Example 25, 2-(((2R,3R,4S,5R,6R)-2-((3,4-dichlorophenyl)thio)-5-hydroxy-6-(hydroxymethyl)-4-(4-(3,4,5-trifluorophenyl)-1H-1,2,3-triazol-1-yl)tetrahydro-2H-pyran-3-yl)oxy)-1-morpholinoethan-1-one]
7.05	O=C(CO[C@@H]1[C@@H](n2cc(-c3cc(F)c(F)c(F)c3)nn2)[C@@H](O)[C@@H](CO)O[C@@H]1Sc1ccc(Cl)c(Cl)c1)N1CC(O)C1 [Example 31]
7.37	O=C(CO[C@@H]1[C@@H](n2cc(-c3cc(F)c(F)c(F)c3)nn2)[C@@H](O)[C@@H](CO)O[C@@H]1Sc1ccc(Cl)c(Cl)c1)N1CCS(=O)(=O)CC1 [Example 22, 2-(((2R,3R,4S,5R,6R)-2-((3,4-dichlorophenyl)thio)-5-hydroxy-6-(hydroxymethyl)-4-(4-(3,4,5-trifluorophenyl)-1H-1,2,3-triazol-1-yl)tetrahydro-2H-pyran-3-yl)oxy)-1-(1,1-dioxidothiomorpholino)ethan-1-one]
6.18	O=C(CO[C@@H]1[C@@H](n2cc(-c3cc(F)c(F)c(F)c3)nn2)[C@@H](O)[C@@H](CO)O[C@@H]1Sc1ccc(Cl)c(Cl)c1)NC1CC2(CC(O)C2)C1 (some centres unmarked) [Example 34]

same assay, conditions: 15 nM hGal-3, 15 nM B-ASF, table after Example 46, read-out: hGal3 IC50

pIC50	Compound
5.76	Cc1ccccc1-c1cn([C@H]2[C@@H](O)[C@@H](CO)O[C@H](Sc3ccc(Cl)c(Cl)c3)[C@@H]2OCC(=O)O)nn1 [Example 53]
6.13	COc1cccc(-c2cn([C@H]3[C@@H](O)[C@@H](CO)O[C@H](Sc4ccc(Cl)c(Cl)c4)[C@@H]3OCC(=O)O)nn2)c1 [Example 48]

same assay, conditions: 15 nM hGal-3, 15 nM B-ASF, three replicates, room temperature, read-out: hGal3 IC50

pIC50	Compound
5.30	CO[C@@H]1[C@@H](n2cc(C(=O)N(C)C3CC3)nn2)[C@@H](O)[C@@H](CO)O[C@@H]1Sc1ccc(Cl)c(Cl)c1 [Example 44, N-cyclopropyl-1-((2R,3R,4S,5R,6R)-2-((3,4-dichlorophenyl)thio)-5-hydroxy-6-(hydroxymethyl)-3-methoxytetrahydro-2H-pyran-4-yl)-N-methyl-1H-1,2,3-triazole-4-carboxamide]
7.60	CCOC(=O)CO[C@@H]1[C@@H](n2cc(-c3cc(F)c(F)c(F)c3)nn2)[C@@H](O)[C@@H](CO)O[C@@H]1[S@@+]([O-])c1ccc(Cl)c(Cl)c1 [Example 16, ethyl 2-(((2R,3R,4S,5R,6R)-2-((S)-(3,4-dichlorophenyl)sulfinyl)-5-hydroxy-6-(hydroxymethyl)-4-(4-(3,4,5-trifluorophenyl)-1H-1,2,3-triazol-1-yl)tetrahydro-2H-pyran-3-yl)oxy)acetate]
7.70	CC(O[C@@H]1[C@@H](n2cc(-c3cc(F)c(F)c(F)c3)nn2)[C@@H](O)[C@@H](CO)O[C@@H]1S(=O)(=O)c1ccc(Cl)c(Cl)c1)C(=O)O (single isomer, unassigned) [Example 39 (isomer-2)]
6.80	O=S(=O)(c1ccc(Cl)c(Cl)c1)[C@@H]1C[C@@H](n2cc(-c3cc(F)c(F)c(F)c3)nn2)[C@@H](O)[C@@H](CO)O1 [Example 61, (2R,3R,4R,6R)-6-((3,4-dichlorophenyl)sulfonyl)-2-(hydroxymethyl)-4-(4-(3,4,5-trifluorophenyl)-1H-1,2,3-triazol-1-yl)tetrahydro-2H-pyran-3-ol]
7.77	O=C(O)CO[C@@H]1[C@@H](n2cc(-c3cc(F)c(F)c(F)c3)nn2)[C@@H](O)[C@@H](CO)O[C@@H]1[S+]([O-])c1ccc(Cl)c(Cl)c1 (single isomer, unassigned) [18 (isomer-1)]
6.72	CCOC(=O)CO[C@@H]1[C@@H](n2cc(-c3cc(F)c(F)c(F)c3)nn2)[C@@H](O)[C@@H](CO)O[C@@H]1S(=O)(=O)c1ccc(Cl)c(Cl)c1 [Example 17, ethyl 2-(((2R,3R,4S,5R,6R)-2-((3,4-dichlorophenyl)sulfonyl)-5-hydroxy-6-(hydroxymethyl)-4-(4-(3,4,5-trifluorophenyl)-1H-1,2,3-triazol-1-yl)tetrahydro-2H-pyran-3-yl)oxy)acetate]
5.54	CO[C@@H]1[C@@H](n2cc(C(=O)NC3CC3)nn2)[C@@H](O)[C@@H](CO)O[C@@H]1Sc1ccc(Cl)c(Cl)c1 [Example 43, N-cyclopropyl-1-((2R,3R,4S,5R,6R)-2-((3,4-dichlorophenyl)thio)-5-hydroxy-6-(hydroxymethyl)-3-methoxytetrahydro-2H-pyran-4-yl)-1H-1,2,3-triazole-4-carboxamide]
6.15	CO[C@@H]1[C@@H](n2cc(-c3cc(F)c(F)c(F)c3)nn2)[C@@H](O)[C@@H](CO)O[C@@H]1Sc1ccc(Cl)c(Cl)c1 [Example 1, (2R,3R,4S,5R,6R)-6-((3,4-dichlorophenyl)thio)-2-(hydroxymethyl)-5-methoxy-4-(4-(3,4,5-trifluorophenyl)-1H-1,2,3-triazol-1-yl)tetrahydro-2H-pyran-3-ol]
6.81	CO[C@@H]1[C@@H](n2cc(-c3cc(F)c(F)c(F)c3)nn2)[C@@H](O)[C@@H](CO)O[C@@H]1[S+]([O-])c1ccc(Cl)c(Cl)c1 (single isomer, unassigned) [Example 2 (isomer-2)]
5.56	O=C(O)/C=C/O[C@@H]1[C@@H](n2cc(C3CC3)nn2)[C@@H](O)[C@@H](CO)O[C@@H]1Sc1ccc(Cl)c(Cl)c1 [Example 41, (E)-3-(((2R,3R,4S,5R,6R)-4-(4-cyclopropyl-1H-1,2,3-triazol-1-yl)-2-((3,4-dichlorophenyl)thio)-5-hydroxy-6-(hydroxymethyl)tetrahydro-2H-pyran-3-yl)oxy)acrylic acid]
7.25	COCCO[C@@H]1[C@@H](n2cc(-c3cc(F)c(F)c(F)c3)nn2)[C@@H](O)[C@@H](CO)O[C@@H]1[S@+]([O-])c1ccc(Cl)c(Cl)c1 [Example 11, (2R,3R,4S,5R,6R)-6-((R)-(3,4-dichlorophenyl)sulfinyl)-2-(hydroxymethyl)-5-(2-methoxyethoxy)-4-(4-(3,4,5-trifluorophenyl)-1H-1,2,3-triazol-1-yl)tetrahydro-2H-pyran-3-ol]
7.10	O=C(CO[C@@H]1[C@@H](n2cc(-c3cc(F)c(F)c(F)c3)nn2)[C@@H](O)[C@@H](CO)O[C@@H]1[S@@+]([O-])c1ccc(Cl)c(Cl)c1)N1CCOCC1 [Example 37, 2-(((2R,3R,4S,5R,6R)-2-((S)-(3,4-dichlorophenyl)sulfinyl)-5-hydroxy-6-(hydroxymethyl)-4-(4-(3,4,5-trifluorophenyl)-1H-1,2,3-triazol-1-yl)tetrahydro-2H-pyran-3-yl)oxy)-1-morpholinoethan-1-one]
5.82	CO[C@@H]1[C@@H](n2nncc2C(=O)O)[C@@H](O)[C@@H](CO)O[C@@H]1Sc1ccc(Cl)c(Cl)c1 [Example 45, 1-((2R,3R,4S,5R,6R)-2-((3,4-dichlorophenyl)thio)-5-hydroxy-6-(hydroxymethyl)-3-methoxytetrahydro-2H-pyran-4-yl)-1H-1,2,3-triazole-5-carboxylic acid]
